Experimental data reported in patent US4093714A, “9β-D-Arabinofuranosylpurine nucleotides and method of use” (ICN Pharmaceuticals, Inc., priority 1974, dated 1978).
Like-named read-outs stand apart in the source and are kept apart here.

Key:
[1] = tested on: Type 1 Herpes Simplex Virus; assay type: cell-based; conditions: cell culture, three days, VR >0.5 definite, <0.5 slight antiviral activity
[2] = tested on: Type 2 Herpes Simplex Virus; assay type: cell-based; conditions: cell culture, three days, VR >0.5 definite, <0.5 slight antiviral activity
Vaccinia Virus = assay type: cell-based; conditions: cell culture, three days, VR >0.5 definite, <0.5 slight antiviral activity
[3] = eventually to uric acid; cited from earlier work
[4] = cited from earlier work
equine abortion virus = conditions: for Infected, Treated Surv/Total: 21 days observation; for Toxicity Control Surv/Total: twice daily for four days; for Survival Increase p: Fisher's exact test; for Infected, Treated Mean Survival Time: animals dying on or before day 21; for Mean Surv. Increase p: t test
[5] = clinical testing as antiviral agent; cited from earlier work
[6] = tested on: spectrum of virus infections; conditions: cited from earlier work
[7] = tested on: Herpes simplex, strain 123; test: Anti-herpes encephalitis activity in mice, intraperitoneal treatment; conditions: for Percent Survivor Number Increase: twice daily for 8 days from 4 hr post virus, 21 days; for Survivor Increase P: probability value (chi square analysis)

O=c1c2ncn([C@@H]3O[C@H](COP(=O)(O)O)[C@@H](O)[C@@H]3O)c2ncn1O [9-β-D-Arabinofuranosyl-N^1-hydroxyhypoxanthine-5'-phosphate]
virus rating (VR) [1]: 0.2-0.7
virus rating (VR) [2]: 0.0-0.6
virus rating (VR) (Vaccinia Virus): 0.1-0.4

Nc1ncnc2c1ncn2[C@@H]1O[C@H](COP(=O)(O)O)[C@@H](O)[C@@H]1O [9-β-D-arabinofuranosyladenine-5'-phosphate]
virus rating (VR) [1]: 1.3
metabolic degradation [3]: rapidly degraded in the metabolic system (eventually to uric acid)

COP(=O)(O)OC[C@H]1O[C@@H](n2cnc3c(=O)[nH]cnc32)[C@@H](O)[C@@H]1O [9-β-D-Arabinofuranosylhypoxanthine-5'-O-methylphosphate]
virus rating (VR) [1]: 0.4-0.7
virus rating (VR) [2]: 0.0
virus rating (VR) (Vaccinia Virus): 0.4

O=c1[nH]c(=O)n([C@H]2C[C@H](O)[C@@H](CO)O2)cc1I [IDU, 5'-iodo-2'-deoxyuridine]
maximum solubility [4]: about 0.1 weight percent
solubility (in words) [4]: extremely low solubility

O=c1[nH]cnc2c1ncn2[C@@H]1O[C@H](CO)[C@@H](OP(=O)(O)O)[C@@H]1O [9-β-D-Arabinofuranosylhypoxanthine-3'-phosphate]
virus rating (VR) [1]: 1.0

O=c1[nH]cnc2c1ncn2[C@@H]1O[C@@H]2COP(=O)(O)O[C@H]2[C@@H]1O [9-β-D-Arabinofuranosylhypoxanthine-3' ,5'-cyclic phosphate]
virus rating (VR) [1]: 0.7-1.1
virus rating (VR) (Vaccinia Virus): 0.7

Nc1ncnc2c1ncn2[C@@H]1O[C@H](CO)[C@@H](O)[C@@H]1O [9-β-D-Arabinofuranosyladenine, 9-β-D-arabinofuranosyladenine]
Infected, Treated Surv/Total (equine abortion virus; Expt. 1, 125 mg/kg/day i.p.): 8/9
Toxicity Control Surv/Total (equine abortion virus; Expt. 1, 125 mg/kg/day i.p.): 2/2
Survival Increase p (equine abortion virus; Expt. 1, 125 mg/kg/day i.p.): < 0.001
Infected, Treated Mean Survival Time (equine abortion virus; Expt. 1, 125 mg/kg/day i.p.): 13 days
Infected, Treated Surv/Total (equine abortion virus; Expt. 1, 250 mg/kg/day i.p.): 0.8
Toxicity Control Surv/Total (equine abortion virus; Expt. 1, 250 mg/kg/day i.p.): 2/3
Infected, Treated Mean Survival Time (equine abortion virus; Expt. 1, 250 mg/kg/day i.p.): 9.2 days
Mean Surv. Increase p (equine abortion virus; Expt. 1, 250 mg/kg/day i.p.): < 0.001
Infected, Treated Surv/Total (equine abortion virus; Expt. 2, 62.5 mg/kg/day i.p.): 10/10
Survival Increase p (equine abortion virus; Expt. 2, 62.5 mg/kg/day i.p.): < 0.001
Infected, Treated Mean Survival Time (equine abortion virus; Expt. 2, 62.5 mg/kg/day i.p.): > 21 days
Mean Surv. Increase p (equine abortion virus; Expt. 2, 62.5 mg/kg/day i.p.): < 0.001
Infected, Treated Surv/Total (equine abortion virus; Expt. 2, 250 mg/kg/day i.p.): 3/10
Toxicity Control Surv/Total (equine abortion virus; Expt. 2, 250 mg/kg/day i.p.): 2/3
Survival Increase p (equine abortion virus; Expt. 2, 250 mg/kg/day i.p.): 0.09
Infected, Treated Mean Survival Time (equine abortion virus; Expt. 2, 250 mg/kg/day i.p.): 12 days
Mean Surv. Increase p (equine abortion virus; Expt. 2, 250 mg/kg/day i.p.): < 0.001
solubility (in words) [4]: low solubility
human toxic symptoms [5]: mild nausea, transient leukopenia and central nervous system involvement which causes illusions and hallucinations
reported antiviral effectiveness [6]: effective agent against a spectrum of virus infections
Percent Survivor Number Increase ([7]; 62.5 mg/kg/day i.p.): 0%
Survivor Increase P ([7]; 62.5 mg/kg/day i.p.): > 0.03
Percent Survivor Number Increase ([7]; 125 mg/kg/day i.p.): 30%
Survivor Increase P ([7]; 125 mg/kg/day i.p.): < 0.05
Percent Survivor Number Increase ([7]; 250 mg/kg/day i.p.): 40%
Survivors/Total (Toxicity Controls) ([7]; 250 mg/kg/day i.p., twice daily for 8 days, 21 days observation): 5/5
Survivor Increase P ([7]; 250 mg/kg/day i.p.): < 0.05
effectiveness of ara-A compared with ara-IMP ([7]; i.p., Table II): less effective
